According to ChEMBL document CHEMBL4020731, “Dimeric isoxazolyl-1,4-dihydropyridines have enhanced binding at the multi-drug resistance transporter” (Bioorg Med Chem, 2017):

Columns and labels:
[1] = target: Metabotropic glutamate receptor 5 (Rattus norvegicus) (UniProt P31424); test: Displacement of [3H]MPEP from rat brain mGluR5 expressed in CHO cells by scintillation counting method; type: cell-based
[2] = target: Voltage-gated L-type calcium channel (Homo sapiens, UniProt Q13936+Q13698+Q01668+O60840); test: Displacement of [3H]PN-200110 from voltage-dependent L-type calcium channel (unknown origin) by scintillation counting method
[3] = target: T1, ATP-dependent translocase ABCB1 (Homo sapiens, UniProt P08183); test: Inhibition of MDR-1 in human Caco-2 cells after 30 mins by calcein-AM dye based fluorescence assay; type: cell-based
T1 sequence (P08183 whole entry): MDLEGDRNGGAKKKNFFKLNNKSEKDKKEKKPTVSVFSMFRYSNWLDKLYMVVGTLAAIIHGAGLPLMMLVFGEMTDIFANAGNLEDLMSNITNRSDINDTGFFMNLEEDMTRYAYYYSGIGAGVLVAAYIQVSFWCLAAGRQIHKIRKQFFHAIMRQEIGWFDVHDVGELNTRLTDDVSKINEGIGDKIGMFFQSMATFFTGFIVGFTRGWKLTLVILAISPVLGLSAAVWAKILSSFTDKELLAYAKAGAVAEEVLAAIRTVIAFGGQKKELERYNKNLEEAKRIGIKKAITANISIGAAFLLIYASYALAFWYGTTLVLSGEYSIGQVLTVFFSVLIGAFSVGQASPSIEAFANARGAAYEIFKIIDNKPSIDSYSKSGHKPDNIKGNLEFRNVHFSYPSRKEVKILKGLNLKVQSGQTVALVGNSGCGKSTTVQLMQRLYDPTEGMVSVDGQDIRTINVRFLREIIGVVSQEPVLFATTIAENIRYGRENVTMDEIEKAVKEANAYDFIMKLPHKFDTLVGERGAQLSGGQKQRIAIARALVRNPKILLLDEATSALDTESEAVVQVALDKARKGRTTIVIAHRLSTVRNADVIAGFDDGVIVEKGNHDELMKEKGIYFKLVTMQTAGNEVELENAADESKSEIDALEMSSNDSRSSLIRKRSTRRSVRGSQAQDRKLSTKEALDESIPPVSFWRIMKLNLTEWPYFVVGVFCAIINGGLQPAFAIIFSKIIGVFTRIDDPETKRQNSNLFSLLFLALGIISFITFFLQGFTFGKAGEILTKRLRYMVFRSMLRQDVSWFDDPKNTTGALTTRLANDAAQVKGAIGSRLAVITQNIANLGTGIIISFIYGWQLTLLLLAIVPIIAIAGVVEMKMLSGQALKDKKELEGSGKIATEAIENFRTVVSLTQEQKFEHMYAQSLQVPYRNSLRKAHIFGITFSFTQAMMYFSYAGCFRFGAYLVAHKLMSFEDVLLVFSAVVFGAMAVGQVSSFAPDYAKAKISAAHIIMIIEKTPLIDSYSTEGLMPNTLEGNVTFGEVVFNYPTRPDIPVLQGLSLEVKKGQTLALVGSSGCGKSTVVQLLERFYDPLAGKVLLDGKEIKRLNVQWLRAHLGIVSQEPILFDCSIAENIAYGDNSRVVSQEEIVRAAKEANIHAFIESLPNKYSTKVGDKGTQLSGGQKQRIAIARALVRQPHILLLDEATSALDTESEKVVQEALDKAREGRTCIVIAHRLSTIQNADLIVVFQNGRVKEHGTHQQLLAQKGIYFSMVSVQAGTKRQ

[4] = target: MDR-1 (P-glycoprotein, ABCB1) (Homo sapiens, UniProt P08183); test: (§1) Inhibition of MDR-1 in human Caco-2 cells at 10 uM after 30 mins by calcein-AM dye based fluorescence assay relative to cyclosporin; type: cell-based; conditions: Caco-2 cells, probe calcein-AM
Chain of MDR-1 (P-glycoprotein, ABCB1) (P08183 whole entry): as above

[5] = target: T1, ATP-dependent translocase ABCB1; test: as §1; type: cell-based; conditions: 0.5 h, 10 µM

Chain of Metabotropic glutamate receptor 5 (Rattus norvegicus) (P31424 21-1203 limits assumed): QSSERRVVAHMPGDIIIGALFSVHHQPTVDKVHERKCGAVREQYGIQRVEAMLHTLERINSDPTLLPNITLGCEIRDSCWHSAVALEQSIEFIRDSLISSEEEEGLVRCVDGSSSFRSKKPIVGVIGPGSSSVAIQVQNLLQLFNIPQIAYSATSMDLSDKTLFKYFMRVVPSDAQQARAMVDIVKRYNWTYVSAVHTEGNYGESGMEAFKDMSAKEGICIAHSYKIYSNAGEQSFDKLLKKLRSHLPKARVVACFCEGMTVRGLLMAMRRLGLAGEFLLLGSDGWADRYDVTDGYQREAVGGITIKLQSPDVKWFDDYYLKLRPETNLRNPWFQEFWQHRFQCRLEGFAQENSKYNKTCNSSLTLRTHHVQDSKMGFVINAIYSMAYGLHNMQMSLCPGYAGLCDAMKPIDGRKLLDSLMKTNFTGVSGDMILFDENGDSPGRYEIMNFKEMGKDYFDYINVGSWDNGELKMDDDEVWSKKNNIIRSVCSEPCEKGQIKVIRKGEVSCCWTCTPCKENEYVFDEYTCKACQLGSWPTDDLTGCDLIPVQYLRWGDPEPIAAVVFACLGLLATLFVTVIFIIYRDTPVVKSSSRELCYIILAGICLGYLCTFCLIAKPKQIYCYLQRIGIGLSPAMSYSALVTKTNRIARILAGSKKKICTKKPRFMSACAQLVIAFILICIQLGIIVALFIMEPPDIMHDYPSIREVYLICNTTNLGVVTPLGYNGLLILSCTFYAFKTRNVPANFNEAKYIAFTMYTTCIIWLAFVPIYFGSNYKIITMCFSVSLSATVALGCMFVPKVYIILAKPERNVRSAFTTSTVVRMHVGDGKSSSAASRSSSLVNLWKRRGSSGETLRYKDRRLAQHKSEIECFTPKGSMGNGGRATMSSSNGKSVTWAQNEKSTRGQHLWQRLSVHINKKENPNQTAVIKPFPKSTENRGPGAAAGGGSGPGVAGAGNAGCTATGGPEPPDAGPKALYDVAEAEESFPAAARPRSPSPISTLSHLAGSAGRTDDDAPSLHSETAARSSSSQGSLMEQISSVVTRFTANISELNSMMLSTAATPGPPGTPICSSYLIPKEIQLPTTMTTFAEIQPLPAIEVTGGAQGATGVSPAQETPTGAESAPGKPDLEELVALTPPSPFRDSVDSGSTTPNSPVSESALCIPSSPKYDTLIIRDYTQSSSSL

| Compound | Ki [1] | IC50 [2] | pIC50 [2] | IC50 [3] | inhibition at 0.5 h, 10 µM [4] | inhibition (INH) [5] |
| --- | --- | --- | --- | --- | --- | --- |
| CCOC(=O)C1=C(C)NC(C)=C(C(=O)OCC)C1c1c(-c2ccc(Br)cc2)noc1C | > 10000 nM | 36 nM | 7.44 | 3100 nM | 58.4% | – |
| CCOC(=O)C1=C(C)NC(C)=C(C(=O)OCc2cn(CCOCCOCCOCCOCCOCCn3cc(COC(=O)C4=C(C)NC(C)=C(C(=O)OCC)C4c4c(-c5ccc(Br)cc5)noc4C)nn3)nn2)C1c1c(-c2ccc(Br)cc2)noc1C (stereo not given) | 193 nM | 2706 nM | – | 1390 nM | – | 172.6% |
| CCOC(=O)C1=C(C)NC(C)=C(C(=O)OCc2cn(CCc3ccccc3)nn2)C1c1c(-c2ccc(Br)cc2)noc1C (stereo not given) | 1970 nM | 127 nM | – | 1640 nM | 108% | – |
| CCOC(=O)C1=C(C)NC(C)=C(C(=O)OCC)C1c1c(-c2ccccc2Br)noc1C | 1520 nM | 909 nM | – | > 10000 nM | -12% | – |
| CCOC(=O)C1=C(C)NC(C)=C(C(=O)OCc2cn(CCOCCOCCOCCOCCOCCn3cc(COC(=O)C4=C(C)NC(C)=C(C(=O)OCC)C4c4c(-c5ccccc5Br)noc4C)nn3)nn2)C1c1c(-c2ccccc2Br)noc1C (stereo not given) | 4860 nM | > 10000 nM | – | 2860 nM | 17.7% | – |
| CCOC(=O)C1=C(C)NC(C)=C(C(=O)OCc2cn(CCOCCOCCOCCOCCOCCn3cc(COC(=O)C4=C(C)NC(C)=C(C(=O)OCC)C4c4c(-c5cccc(Br)c5)noc4C)nn3)nn2)C1c1c(-c2cccc(Br)c2)noc1C (stereo not given) | 8640 nM | 3766 nM | – | 1300 nM | – | 150.8% |
| CCOC(=O)C1=C(C)NC(C)=C(C(=O)OCc2cn(CCOCCOCCOCCn3cc(COC(=O)C4=C(C)NC(C)=C(C(=O)OCC)C4c4c(-c5ccc(Br)cc5)noc4C)nn3)nn2)C1c1c(-c2ccc(Br)cc2)noc1C (stereo not given) | 546 nM | 516 nM | – | 3230 nM | 11.6% | – |
| CCOC(=O)C1=C(C)NC(C)=C(C(=O)OCc2cn(CCOCCOCCOCCOCCOCCn3cc(COC(=O)C4=C(C)NC(C)=C(C(=O)OCC)C4c4c(-c5ccccc5)noc4C)nn3)nn2)C1c1c(-c2ccccc2)noc1C (stereo not given) | > 10000 nM | > 10000 nM | – | > 10000 nM | 20.4% | – |
| CCOC(=O)C1=C(C)NC(C)=C(C(=O)OCC)C1c1c(-c2cccc(Br)c2)noc1C | > 10000 nM | 208 nM | – | 510 nM | 102% | – |
| CCOC(=O)C1=C(C)NC(C)=C(C(=O)OCc2cn(CCOCCOCCn3cc(COC(=O)C4=C(C)NC(C)=C(C(=O)OCC)C4c4c(-c5ccc(Br)cc5)noc4C)nn3)nn2)C1c1c(-c2ccc(Br)cc2)noc1C (stereo not given) | 933 nM | 603 nM | – | 1450 nM | 41.9% | – |
| CCOC(=O)c1c(C)nc(C)c(C(=O)OCC)c1-c1c(-c2ccccc2)noc1C | > 10000 nM | > 10000 nM | – | > 10000 nM | 36.9% | – |
